Source: paper PMC2229628 (The Journal of Endocrinology, 2008)

Target: T1, human GnRH receptor (hGnRHR) (Homo sapiens, UniProt P30968)
T1 sequence (P30968 1-328): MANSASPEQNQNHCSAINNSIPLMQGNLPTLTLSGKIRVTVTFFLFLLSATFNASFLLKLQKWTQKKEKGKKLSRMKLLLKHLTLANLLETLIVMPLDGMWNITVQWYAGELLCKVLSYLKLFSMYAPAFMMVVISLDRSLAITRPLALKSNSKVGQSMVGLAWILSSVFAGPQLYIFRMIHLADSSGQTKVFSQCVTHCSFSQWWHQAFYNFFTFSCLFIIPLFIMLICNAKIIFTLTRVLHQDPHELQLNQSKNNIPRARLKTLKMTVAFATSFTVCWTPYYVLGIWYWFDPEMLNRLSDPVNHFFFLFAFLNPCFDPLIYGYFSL
Assay type: cell-based

**Q.** With Cc1cc(C)cc(-c2[nH]c3ccc(C(C)(C)C(=O)N4CC5CCC4CC5)cc3c2[C@H](C)CNCCc2ccncc2)c1 [IN3, (2S)-2-[5-[2-(2-axabicyclo[2.2.2]oct-2-yl)-1,1-dimethy-2-oxoethyl]-2-(3,5-dimethylphenyl)-1H-indol-3-yl]-N-(2-pyridin-4-ylethyl)propan-1-amine] as the compound, how does the EC50 read?
**A.** Its EC50 is 3–5×10^−8 M.
